Source: the supplement of paper PMC9013687
± gives the standard deviation of the averaged measurements.

Key:
[1] = system: Danio rerio embryo; test: spontaneous tail coiling frequency (coils/min/embryo); higher = more spontaneous movement; conditions: 25 hpf
Experimental: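 Spontaneous tail coilings of zebrafish embryos exposed from 2 hpf were recorded at 24-25 hpf in 1-min videos and detected by a KNIME workflow from grey-value variance. Betamethasone was tested as the dipropionate, diflorasone as the diacetate.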

[2] = system: Danio rerio embryo; test: EC10 Head trunk angle_Decrease; higher = less potent; conditions: exposure time: 2 dpf
Experimental: (§1)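 Zebrafish embryos (UFZ-OBI strain) were exposed from 2 hpf for 48 h (2 dpf) or 96 h (4 dpf) at 28 °C; spontaneous tail coiling was scored at 25 hpf. Morphological features from automated image analysis (FishInspector), heart rate and locomotor response were fitted with drc models. Quantal endpoints were dichotomised at 2.5 SD from controls and fitted with a log-logistic model; heart rate, pigmentation and STC were normalised to the replicate control mean. Betamethasone was tested as betamethasone dipropionate, diflorasone as diflorasone diacetate.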

[3] = system: Danio rerio embryo; test: EC10 Eye size_Decrease; higher = less potent
Experimental: as §1

[4] = system: Danio rerio embryo; test: EC20 Curvature_Increase; higher = less potent
Experimental: as §1

[5] = system: Danio rerio embryo; test: EC50 Pericard size_Increase; conditions: exposure time: 4 dpf
Experimental: as §1

[6] = system: Danio rerio embryo; test: EC10 Eye-jaw distance_Decrease; higher = less potent; conditions: exposure time: 4 dpf
Experimental: as §1

[7] = system: Danio rerio embryo; test: EC50 Head trunk angle_Decrease; conditions: exposure time: 2 dpf
Experimental: as §1

[8] = system: Danio rerio embryo; test: EC20 Body length_Decrease; higher = less potent
Experimental: as §1

[9] = system: Danio rerio embryo; test: EC10 Body length_Decrease; higher = less potent
Experimental: as §1

[10] = system: Danio rerio embryo; test: EC20 Head trunk angle_Decrease; higher = less potent; conditions: exposure time: 2 dpf
Experimental: as §1

[11] = system: Danio rerio embryo
Experimental: as §1

[12] = system: Danio rerio embryo; test: EC10 Any effect; higher = less potent
Experimental: as §1

[13] = system: Danio rerio embryo; test: EC10 Pericard size_Increase; higher = less potent; conditions: exposure time: 4 dpf
Experimental: as §1

[14] = system: Danio rerio embryo; test: EC10 Otolith-eye distance_Decrease; higher = less potent; conditions: exposure time: 4 dpf
Experimental: as §1

[15] = system: Danio rerio embryo; test: EC10 Lack of SB; higher = less potent; conditions: exposure time: 4 dpf
Experimental: as §1

[16] = system: Danio rerio embryo; test: EC50 Eye-jaw distance_Decrease; conditions: exposure time: 4 dpf
Experimental: as §1

[17] = system: Danio rerio embryo; test: EC50 Bladder size_Decrease; conditions: exposure time: 4 dpf
Experimental: as §1

[18] = system: Danio rerio embryo; test: EC50 Eye size_Decrease
Experimental: as §1

[19] = system: Danio rerio embryo; test: EC20 Otolith-eye distance_Decrease; higher = less potent; conditions: exposure time: 4 dpf
Experimental: as §1

[20] = system: Danio rerio embryo; test: EC20 Lack of SB; higher = less potent; conditions: exposure time: 4 dpf
Experimental: as §1

[21] = system: Danio rerio embryo; test: EC20 Eye size_Decrease; higher = less potent
Experimental: as §1

[22] = system: Danio rerio embryo; test: EC20 Any effect; higher = less potent
Experimental: as §1

[23] = system: Danio rerio embryo; test: EC20 Bladder size_Decrease; higher = less potent; conditions: exposure time: 4 dpf
Experimental: as §1

[24] = system: Danio rerio embryo; test: EC10 Bladder size_Decrease; higher = less potent; conditions: exposure time: 4 dpf
Experimental: as §1

[25] = system: Danio rerio embryo; test: EC50 Otolith-eye distance_Decrease; conditions: exposure time: 4 dpf
Experimental: as §1

[26] = system: Danio rerio embryo; test: EC10 Curvature_Increase; higher = less potent
Experimental: as §1

[27] = system: Danio rerio embryo; test: EC20 Pericard size_Increase; higher = less potent; conditions: exposure time: 4 dpf
Experimental: as §1

[28] = system: Danio rerio embryo; test: EC20 Eye-jaw distance_Decrease; higher = less potent; conditions: exposure time: 4 dpf
Experimental: as §1

[29] = system: Danio rerio embryo; test: EC50 Curvature_Increase
Experimental: as §1

[30] = system: Danio rerio embryo; conditions: exposure time: 4 dpf
Experimental: as §1

[31] = system: Danio rerio embryo; test: EC50 Body length_Decrease
Experimental: as §1

[32] = system: Danio rerio embryo; conditions: exposure time: 4 dpf; remark: listed apart in the source
Experimental: as §1

[33] = system: Danio rerio embryo; test: EC10 LMR dark; higher = less potent; conditions: exposure time: 4 dpf
Experimental: as §1

[34] = system: Danio rerio embryo; test: EC20 LMR dark; higher = less potent; conditions: exposure time: 4 dpf
Experimental: as §1

COc1ccc(Cl)cc1C(=O)NCCc1ccc(S(=O)(=O)NC(=O)NC2CCCCC2)cc1 [Glibenclamide]
[1]
Conditions	spontaneous tail coiling frequency
3.16 µM	1.79
3.2 µM	0.98
6.3 µM	1.48
6.33 µM	1.79
12.65 µM	0.8
12.7 µM	1.41
25.3 µM	1.69 ± 1.1
50.6 µM	1.97
50.61 µM	1.66

COC(=O)Nc1nc2cc(Sc3ccccc3)ccc2[nH]1 [Fenbendazole]
Conditions	EC10 Bladder size Decrease [nM]	EC10 Eye-jaw distance Decrease [nM]	EC10 Head trunk angle Decrease [nM]	EC10 Lack of SB [nM]	EC10 Otolith-eye distance Decrease [nM]	EC10 Pericard size Increase [nM]	EC20 Bladder size Decrease [nM]	EC20 Eye-jaw distance Decrease [nM]	EC20 Head trunk angle Decrease [nM]	EC20 Lack of SB [nM]	EC20 Otolith-eye distance Decrease [nM]	EC20 Pericard size Increase [nM]	EC50 Bladder size Decrease [nM]	EC50 Eye-jaw distance Decrease [nM]	EC50 Head trunk angle Decrease [nM]	EC50 Lack of SB [nM]	EC50 Otolith-eye distance Decrease [nM]	EC50 Pericard size Increase [nM]
[2]	–	–	37	–	–	–	–	–	–	–	–	–	–	–	–	–	–	–
[5]	–	–	–	–	–	–	–	–	–	–	–	–	–	–	–	–	–	85
[6]	–	53	–	–	–	–	–	–	–	–	–	–	–	–	–	–	–	–
[7]	–	–	–	–	–	–	–	–	–	–	–	–	–	–	41	–	–	–
[10]	–	–	–	–	–	–	–	–	38	–	–	–	–	–	–	–	–	–
[13]	–	–	–	–	–	67	–	–	–	–	–	–	–	–	–	–	–	–
[14]	–	–	–	–	70	–	–	–	–	–	–	–	–	–	–	–	–	–
[15]	–	–	–	46	–	–	–	–	–	–	–	–	–	–	–	–	–	–
[16]	–	–	–	–	–	–	–	–	–	–	–	–	–	81	–	–	–	–
[17]	–	–	–	–	–	–	–	–	–	–	–	–	49	–	–	–	–	–
[19]	–	–	–	–	–	–	–	–	–	–	77	–	–	–	–	–	–	–
[20]	–	–	–	–	–	–	–	–	–	47	–	–	–	–	–	–	–	–
[23]	–	–	–	–	–	–	47	–	–	–	–	–	–	–	–	–	–	–
[24]	45	–	–	–	–	–	–	–	–	–	–	–	–	–	–	–	–	–
[25]	–	–	–	–	–	–	–	–	–	–	–	–	–	–	–	–	89	–
[27]	–	–	–	–	–	–	–	–	–	–	–	73	–	–	–	–	–	–
[28]	–	–	–	–	–	–	–	62	–	–	–	–	–	–	–	–	–	–
[30]	–	–	–	–	–	–	–	–	–	–	–	–	–	–	–	50	–	–

Conditions	EC10 Any effect [nM]	EC10 Body length Decrease [nM]	EC10 Curvature Increase [nM]	EC10 Eye size Decrease [nM]	EC20 Any effect [nM]	EC20 Body length Decrease [nM]	EC20 Curvature Increase [nM]	EC20 Eye size Decrease [nM]	EC50 Any effect [nM]	EC50 Body length Decrease [nM]	EC50 Curvature Increase [nM]	EC50 Eye size Decrease [nM]	spontaneous tail coiling frequency
[1], 0.013 µM	–	–	–	–	–	–	–	–	–	–	–	–	0.94
[1], 0.017 µM	–	–	–	–	–	–	–	–	–	–	–	–	2.28
[1], 0.02 µM	–	–	–	–	–	–	–	–	–	–	–	–	1.96
[1], 0.03 µM	–	–	–	–	–	–	–	–	–	–	–	–	1.28
[1], 0.0319628 µM	–	–	–	–	–	–	–	–	–	–	–	–	4.8 ± 2.3
[1], 0.045 µM	–	–	–	–	–	–	–	–	–	–	–	–	1.58
[1], 0.0477056 µM	–	–	–	–	–	–	–	–	–	–	–	–	5.09 ± 2.4
[1], 0.048 µM	–	–	–	–	–	–	–	–	–	–	–	–	2.73
[1], 0.064 µM	–	–	–	–	–	–	–	–	–	–	–	–	2.5
[1], 0.067 µM	–	–	–	–	–	–	–	–	–	–	–	–	4.88 ± 1.5
[1], 0.0715584 µM	–	–	–	–	–	–	–	–	–	–	–	–	6.17
[1], 0.084 µM	–	–	–	–	–	–	–	–	–	–	–	–	2.72
[1], 0.087 µM	–	–	–	–	–	–	–	–	–	–	–	–	4.84 ± 1.5
[1], 0.107 µM	–	–	–	–	–	–	–	–	–	–	–	–	4.95 ± 0.81
[3], exposure time: 2 dpf	–	–	–	31	–	–	–	–	–	–	–	–	–
[3], exposure time: 4 dpf	–	–	–	64	–	–	–	–	–	–	–	–	–
[4], exposure time: 2 dpf	–	–	–	–	–	–	27	–	–	–	–	–	–
[4], exposure time: 4 dpf	–	–	–	–	–	–	68	–	–	–	–	–	–
[8], exposure time: 2 dpf	–	–	–	–	–	35	–	–	–	–	–	–	–
[9], exposure time: 2 dpf	–	30	–	–	–	–	–	–	–	–	–	–	–
[11], exposure time: 2 dpf	–	–	–	–	–	–	–	–	32	–	–	–	–
[11], exposure time: 4 dpf	–	–	–	–	–	–	–	–	70	–	–	–	–
[12], exposure time: 2 dpf	14	–	–	–	–	–	–	–	–	–	–	–	–
[12], exposure time: 4 dpf	49	–	–	–	–	–	–	–	–	–	–	–	–
[18], exposure time: 2 dpf	–	–	–	–	–	–	–	–	–	–	–	51	–
[18], exposure time: 4 dpf	–	–	–	–	–	–	–	–	–	–	–	82	–
[21], exposure time: 2 dpf	–	–	–	–	–	–	–	37	–	–	–	–	–
[21], exposure time: 4 dpf	–	–	–	–	–	–	–	70	–	–	–	–	–
[22], exposure time: 2 dpf	–	–	–	–	19	–	–	–	–	–	–	–	–
[22], exposure time: 4 dpf	–	–	–	–	56	–	–	–	–	–	–	–	–
[26], exposure time: 2 dpf	–	–	22	–	–	–	–	–	–	–	–	–	–
[26], exposure time: 4 dpf	–	–	62	–	–	–	–	–	–	–	–	–	–
[29], exposure time: 2 dpf	–	–	–	–	–	–	–	–	–	–	38	–	–
[29], exposure time: 4 dpf	–	–	–	–	–	–	–	–	–	–	82	–	–
[31], exposure time: 2 dpf	–	–	–	–	–	–	–	–	–	45	–	–	–

CC(=O)OCC(=O)[C@@]1(OC(C)=O)[C@@H](C)C[C@H]2[C@@H]3C[C@H](F)C4=CC(=O)C=C[C@]4(C)[C@@]3(F)[C@@H](O)C[C@@]21C [diflorasone diacetate]
Conditions	EC10 Bladder size Decrease [nM]	EC10 Eye-jaw distance Decrease [nM]	EC10 Lack of SB [nM]	EC10 Pericard size Increase [nM]	EC20 Bladder size Decrease [nM]	EC20 Eye-jaw distance Decrease [nM]	EC20 Lack of SB [nM]	EC20 Pericard size Increase [nM]	EC50 Bladder size Decrease [nM]	EC50 Eye-jaw distance Decrease [nM]	EC50 Lack of SB [nM]	EC50 Pericard size Increase [nM]
[5]	–	–	–	–	–	–	–	–	–	–	–	2080
[6]	–	4	–	–	–	–	–	–	–	–	–	–
[13]	–	–	–	25	–	–	–	–	–	–	–	–
[15]	–	–	45	–	–	–	–	–	–	–	–	–
[16]	–	–	–	–	–	–	–	–	–	2380	–	–
[17]	–	–	–	–	–	–	–	–	176	–	–	–
[20]	–	–	–	–	–	–	99	–	–	–	–	–
[23]	–	–	–	–	66	–	–	–	–	–	–	–
[24]	37	–	–	–	–	–	–	–	–	–	–	–
[27]	–	–	–	–	–	–	–	127	–	–	–	–
[28]	–	–	–	–	–	41	–	–	–	–	–	–
[30]	–	–	–	–	–	–	–	–	–	–	379	–

[1]
Conditions	spontaneous tail coiling frequency
0.63 µM	2.46
1.2 µM	2.87
1.26 µM	2.52
2 µM	2.33
2.5 µM	2.17
3 µM	1.89
4 µM	2.36
6 µM	2.7
10.1 µM	1.56

Cc1cc2c(s1)Nc1ccccc1N=C2N1CCN(C)CC1 [Olanzapine]
Conditions	EC10 Bladder size Decrease [nM]	EC10 LMR dark [nM]	EC10 Lack of SB [nM]	EC10 Pericard size Increase [nM]	EC20 Bladder size Decrease [nM]	EC20 LMR dark [nM]	EC20 Lack of SB [nM]	EC20 Pericard size Increase [nM]	EC50 Bladder size Decrease [nM]	EC50 LMR dark [nM]	EC50 Lack of SB [nM]	EC50 Pericard size Increase [nM]
[5]	–	–	–	–	–	–	–	–	–	–	–	53100
[13]	–	–	–	26400	–	–	–	–	–	–	–	–
[15]	–	–	8090	–	–	–	–	–	–	–	–	–
[17]	–	–	–	–	–	–	–	–	9130	–	–	–
[20]	–	–	–	–	–	–	8650	–	–	–	–	–
[23]	–	–	–	–	7840	–	–	–	–	–	–	–
[24]	7170	–	–	–	–	–	–	–	–	–	–	–
[27]	–	–	–	–	–	–	–	34100	–	–	–	–
[30]	–	–	–	–	–	–	–	–	–	–	9710	–
[32]	–	–	–	–	–	–	–	–	–	24000	–	–
[33]	–	5650	–	–	–	–	–	–	–	–	–	–
[34]	–	–	–	–	–	9630	–	–	–	–	–	–

Conditions	EC10 Body length Decrease [nM]	EC20 Body length Decrease [nM]	EC50 Body length Decrease [nM]	spontaneous tail coiling frequency
[1], 5.4 µM	–	–	–	2.35 ± 0.46
[1], 8.1 µM	–	–	–	2.37 ± 0.57
[1], 12.1 µM	–	–	–	2.38 ± 0.45
[1], 18.1 µM	–	–	–	1.89 ± 0.88
[1], 27.2 µM	–	–	–	2.465 ± 0.0071
[1], 32 µM	–	–	–	2.44 ± 0.63
[8], exposure time: 4 dpf	–	24700	–	–
[9], exposure time: 4 dpf	17700	–	–	–
[31], exposure time: 4 dpf	–	–	43800	–
